Results as given in PMC4052943 (BioMed Research International, 2014).
Read-outs that look alike come from different tables or passages of the source.

Assays:
[1] = system: Salmonella typhimurium TA97a; settings: TA 97a
Experimental: (§1) In the preincubation experiment, test compounds and mutagen, each having a volume of 0.1 mL of varying concentrations, were preincubated at 37°C for 30 min and then 0.1 mL of 1 × 10^7 CFU/mL density of the bacterial culture was added, followed by the addition of 2.5 mL of top agar at 45°C (containing 0.5% NaCl and 0.6% agar) supplemented with 0.5 mM histidine-biotin. […] The combined solutions were vortexed and poured onto minimal glucose plates (40% glucose solution and Vogel Bonner medium). The plates were incubated at 37°C for 48 h and the numbers of histidine-independent revertants colonies were scored.
(§2) Survival of the bacteria was routinely monitored for each experiment. Parallel controls were run with compounds alone at all concentrations to test the possible toxicity. The concentrations of the test samples for investigating the antimutagenicity were 50, 100, 200, and 500 μM. […] All the test samples and mutagens were dissolved in DMSO (final conc., 0.01%). […] Plates were set up in triplicate for each concentration and the entire experiment was repeated three times. Inhibition of mutagenicity was expressed as percentage decrease of reverse mutation and calculated as (1) Percent inhibition=[(a−b)/(a−c)]×100, where a = number of histidine revertants induced by mutagen, b = number of histidine revertants induced by mutagen in the presence of test compound, and c = number of revertants induced in negative control.

[2] = system: Salmonella typhimurium TA98
Experimental: as §1, §2

[3] = system: Salmonella typhimurium TA100
Experimental: as §1, §2

[4] = system: Salmonella typhimurium TA102
Experimental: as §1, §2

Structure (SMILES): O=C1O[C@H]2[C@@H]3OC(=O)c4cc(O)c(O)c(O)c4-c4c(O)c(O)c5oc(=O)c6c(c(O)c(O)c7oc(=O)c4c5c76)-c4c(cc(O)c(O)c4O)C(=O)OC[C@H]3OC(O)[C@@H]2OC(=O)c2cc(O)c(O)c(O)c2-c2c1cc(O)c(O)c2O (mixture of isomers) [Punicalagin]
- Number of His+ revertants colonies/plate ([1]; 50 μM alone (negative control), 2AF tables): 132.3 ± 8.8 colonies/plate
- Number of His+ revertants colonies/plate ([1]; 50 μM alone (negative control), BP tables): 132.3 ± 8.8 colonies/plate
- Number of His+ revertants colonies/plate ([1]; 50 μM alone (negative control), MMS tables): 141.3 ± 5.2 colonies/plate
- Number of His+ revertants colonies/plate ([1]; 50 μM alone (negative control), NaN3 tables): 141.3 ± 5.2 colonies/plate
- Number of His+ revertants colonies/plate ([1]; 100 μM alone (negative control), 2AF tables): 158.0 ± 7.4 colonies/plate
- Number of His+ revertants colonies/plate ([1]; 100 μM alone (negative control), BP tables): 158.0 ± 7.4 colonies/plate
- Number of His+ revertants colonies/plate ([1]; 100 μM alone (negative control), MMS tables): 153.7 ± 9.2 colonies/plate
- Number of His+ revertants colonies/plate ([1]; 100 μM alone (negative control), NaN3 tables): 153.7 ± 9.2 colonies/plate
- Number of His+ revertants colonies/plate ([1]; 250 μM alone (negative control), 2AF tables): 165.7 ± 10.9 colonies/plate
- Number of His+ revertants colonies/plate ([1]; 250 μM alone (negative control), BP tables): 165.7 ± 10.9 colonies/plate
- Number of His+ revertants colonies/plate ([1]; 250 μM alone (negative control), MMS tables): 158.3 ± 7.1 colonies/plate
- Number of His+ revertants colonies/plate ([1]; 250 μM alone (negative control), NaN3 tables): 158.3 ± 7.1 colonies/plate
- Number of His+ revertants colonies/plate ([1]; 500 μM alone (negative control), 2AF tables): 188.0 ± 9.5 colonies/plate
- Number of His+ revertants colonies/plate ([1]; 500 μM alone (negative control), BP tables): 188.0 ± 9.5 colonies/plate
- Number of His+ revertants colonies/plate ([1]; 500 μM alone (negative control), MMS tables): 174.0 ± 6.4 colonies/plate
- Number of His+ revertants colonies/plate ([1]; 500 μM alone (negative control), NaN3 tables): 174.0 ± 6.4 colonies/plate
- Number of His+ revertants colonies/plate ([2]; Salmonella typhimurium): 31.0 ± 1.7 colonies/plate
- Number of His+ revertants colonies/plate ([2]; TA 98, 50 μM alone (negative control), 2AF tables): 40.7 ± 2.9 colonies/plate
- Number of His+ revertants colonies/plate ([2]; TA 98, 50 μM alone (negative control), BP tables): 40.7 ± 2.9 colonies/plate
- Number of His+ revertants colonies/plate ([2]; TA 98, 50 μM alone (negative control), MMS tables): 42.3 ± 1.8 colonies/plate
- Number of His+ revertants colonies/plate ([2]; TA 98, 50 μM alone (negative control), NaN3 tables): 42.3 ± 1.8 colonies/plate
- Number of His+ revertants colonies/plate ([2]; TA 98, 100 μM alone (negative control), 2AF tables): 36.3 ± 1.8 colonies/plate
- Number of His+ revertants colonies/plate ([2]; TA 98, 100 μM alone (negative control), BP tables): 36.3 ± 1.8 colonies/plate
- Number of His+ revertants colonies/plate ([2]; TA 98, 100 μM alone (negative control), MMS tables): 35.7 ± 1.8 colonies/plate
- Number of His+ revertants colonies/plate ([2]; TA 98, 100 μM alone (negative control), NaN3 tables): 35.7 ± 1.8 colonies/plate
- Number of His+ revertants colonies/plate ([2]; TA 98, 250 μM alone (negative control), BP tables): 31.0 ± 1.7 colonies/plate
- Number of His+ revertants colonies/plate ([2]; TA 98, 250 μM alone (negative control), MMS tables): 30.0 ± 1.2 colonies/plate
- Number of His+ revertants colonies/plate ([2]; TA 98, 250 μM alone (negative control), NaN3 tables): 30.0 ± 1.2 colonies/plate
- Number of His+ revertants colonies/plate ([2]; TA 98, 500 μM alone (negative control), 2AF tables): 22.3 ± 1.8 colonies/plate
- Number of His+ revertants colonies/plate ([2]; TA 98, 500 μM alone (negative control), BP tables): 22.3 ± 1.8 colonies/plate
- Number of His+ revertants colonies/plate ([2]; TA 98, 500 μM alone (negative control), MMS tables): 27.3 ± 2.0 colonies/plate
- Number of His+ revertants colonies/plate ([2]; TA 98, 500 μM alone (negative control), NaN3 tables): 27.3 ± 2.0 colonies/plate
- Number of His+ revertants colonies/plate ([3]; Salmonella typhimurium): 175.3 ± 14.3 colonies/plate
- Number of His+ revertants colonies/plate ([3]; TA 100, 50 μM alone (negative control), 2AF tables): 136.0 ± 11.7 colonies/plate
- Number of His+ revertants colonies/plate ([3]; TA 100, 50 μM alone (negative control), BP tables): 136.0 ± 11.7 colonies/plate
- Number of His+ revertants colonies/plate ([3]; TA 100, 50 μM alone (negative control), MMS tables): 189.7 ± 12.0 colonies/plate
- Number of His+ revertants colonies/plate ([3]; TA 100, 50 μM alone (negative control), NaN3 tables): 189.7 ± 12.0 colonies/plate
- Number of His+ revertants colonies/plate ([3]; TA 100, 100 μM alone (negative control), 2AF tables): 162.7 ± 15.0 colonies/plate
- Number of His+ revertants colonies/plate ([3]; TA 100, 100 μM alone (negative control), BP tables): 162.7 ± 15.0 colonies/plate
- Number of His+ revertants colonies/plate ([3]; TA 100, 100 μM alone (negative control), MMS tables): 181.0 ± 7.4 colonies/plate
- Number of His+ revertants colonies/plate ([3]; TA 100, 100 μM alone (negative control), NaN3 tables): 181.0 ± 7.4 colonies/plate
- Number of His+ revertants colonies/plate ([3]; TA 100, 250 μM alone (negative control), BP tables): 175.3 ± 14.3 colonies/plate
- Number of His+ revertants colonies/plate ([3]; TA 100, 250 μM alone (negative control), MMS tables): 165.3 ± 5.4 colonies/plate
- Number of His+ revertants colonies/plate ([3]; TA 100, 250 μM alone (negative control), NaN3 tables): 165.3 ± 5.4 colonies/plate
- Number of His+ revertants colonies/plate ([3]; TA 100, 500 μM alone (negative control), 2AF tables): 191.0 ± 15.0 colonies/plate
- Number of His+ revertants colonies/plate ([3]; TA 100, 500 μM alone (negative control), BP tables): 191.0 ± 15.0 colonies/plate
- Number of His+ revertants colonies/plate ([3]; TA 100, 500 μM alone (negative control), MMS tables): 187.7 ± 9.8 colonies/plate
- Number of His+ revertants colonies/plate ([3]; TA 100, 500 μM alone (negative control), NaN3 tables): 187.7 ± 9.8 colonies/plate
- Number of His+ revertants colonies/plate ([4]; Salmonella typhimurium): 356.0 ± 10.4 colonies/plate
- Number of His+ revertants colonies/plate ([4]; TA 102, 50 μM alone (negative control), 2AF tables): 320.0 ± 21.9 colonies/plate
- Number of His+ revertants colonies/plate ([4]; TA 102, 50 μM alone (negative control), BP tables): 320.0±21.9 colonies/plate
- Number of His+ revertants colonies/plate ([4]; TA 102, 50 μM alone (negative control), MMS tables): 292.0 ± 7.7 colonies/plate
- Number of His+ revertants colonies/plate ([4]; TA 102, 50 μM alone (negative control), NaN3 tables): 306.7 ± 13.3 colonies/plate
- Number of His+ revertants colonies/plate ([4]; TA 102, 100 μM alone (negative control), 2AF tables): 341.0 ± 18.3 colonies/plate
- Number of His+ revertants colonies/plate ([4]; TA 102, 100 μM alone (negative control), BP tables): 341.0 ± 18.3 colonies/plate
- Number of His+ revertants colonies/plate ([4]; TA 102, 100 μM alone (negative control), MMS tables): 278.0 ± 12.8 colonies/plate
- Number of His+ revertants colonies/plate ([4]; TA 102, 100 μM alone (negative control), NaN3 tables): 275.3 ± 22.1 colonies/plate
- Number of His+ revertants colonies/plate ([4]; TA 102, 250 μM alone (negative control), BP tables): 356.0 ± 10.4 colonies/plate
- Number of His+ revertants colonies/plate ([4]; TA 102, 250 μM alone (negative control), MMS tables): 255.0 ± 13.2 colonies/plate
- Number of His+ revertants colonies/plate ([4]; TA 102, 250 μM alone (negative control), NaN3 tables): 250.0 ± 22.9 colonies/plate
- Number of His+ revertants colonies/plate ([4]; TA 102, 500 μM alone (negative control), 2AF tables): 358.0 ± 19.9 colonies/plate
